Measured values published in article PMC9820345, “Metal Complexes of a 5-Nitro-8-Hydroxyquinoline-Proline Hybrid with Enhanced Water Solubility Targeting Multidrug Resistant Cancer Cells” (International Journal of Molecular Sciences, 2022).

How the values were obtained:
[1] = Formation constants of Fe(III) complexes by UV-vis spectrophotometric titrations; format: physicochemical; conditions: I = 0.1 M KCl, 25.0 °C
Protocol: (§1) UV-vis titrations were performed to determine the formation (overall stability) constants (β) for the complexes of HQNO2-L-Pro formed with Fe(III) and Fe(II) ions (Figures S10 and S11). In the latter case, titrations were performed in a laboratory glove box. The calculations were complicated by the overlapping feature of the ligand bands and the charge transfer bands of the complexes. Based on the absorption spectra Figures S10a and S11a), formation of mono, bis, and tris complexes were found in both chemical systems; obtained constants are collected in Table 2. […] Based on the concentration distribution diagrams (see Figure S10b for Fe(III) and Figure S11b for Fe(II)), it can be concluded that the tris complexes are the dominant species at pH 7.4 in the case of Fe(III), while with Fe(II) both tris and bis-ligand species are formed under the conditions of the titrations.
An Agilent Cary 8454 diode array spectrophotometer (Santa Clara, CA, USA) was used to obtain UV-vis spectra in the wavelength range 200–1000 nm, while spectra were recorded for the Fe(II)-containing samples using an Avantes (Avantes B.V., Apeldoorn, The Nederlands) AvaSpec-ULS2048CL-EVO spectrometer with an AvaLight-DHc light source and FDP-7UVIR200-2-VAR transmission dip probe. The titrations for the Fe(II)-containing samples were performed in a laboratory glove box (GP(Campus), Jacomex) (O2 content ≤ 1 ppm). The path length (ℓ) was 1 cm in most cases (the actual ℓ is always indicated in the legends of the figures). The concentrations of the ligands and complexes were between 40 and 200 µM, and 0.2 M KNO3 for the organometallic complexes or 0.1 M KCl for the Fe(II/III), Cu(II), and Zn(II) complexes were used to adjust the constant ionic strength. For HSA containing samples, complex concentrations were 50 µM, and 0.5, and 2 equiv. biomolecules were added for kinetic studies, respectively. For HSA model containing samples, complex concentrations were 50 µM, and the model concentrations were 0–150 µM and 0–500 µM, respectively, and the pH was 7.4 (PBS’). Spectra were always background and baseline corrected. […]

[2] = Formation constants of Fe(II) complexes by UV-vis spectrophotometric titrations; format: physicochemical; conditions: I = 0.1 M KCl, 25.0 °C
Protocol: as §1
An Agilent Cary 8454 diode array spectrophotometer (Santa Clara, CA, USA) was used to obtain UV-vis spectra in the wavelength range 200–1000 nm, while spectra were recorded for the Fe(II)-containing samples using an Avantes (Avantes B.V., Apeldoorn, The Nederlands) AvaSpec-ULS2048CL-EVO spectrometer with an AvaLight-DHc light source and FDP-7UVIR200-2-VAR transmission dip probe. The titrations for the Fe(II)-containing samples were performed in a laboratory glove box (GP(Campus), Jacomex) (O2 content ≤ 1 ppm). The path length (ℓ) was 1 cm in most cases (the actual ℓ is always indicated in the legends of the figures). The concentrations of the ligands and complexes were between 40 and 200 µM, and 0.2 M KNO3 for the organometallic complexes or 0.1 M KCl for the Fe(II/III), Cu(II), and Zn(II) complexes were used to adjust the constant ionic strength. For HSA containing samples, complex concentrations were 50 µM, and 0.5, and 2 equiv. biomolecules were added for kinetic studies, respectively. For HSA model containing samples, complex concentrations were 50 µM, and the model concentrations were 0–150 µM and 0–500 µM, respectively, and the pH was 7.4 (PBS’). Spectra were always background and baseline corrected. The computer program HypSpec was used to obtain stability constants. Hydrolysis constants of the Fe(III), Fe(II), RuCym, and RhCp* species were included in the speciation models (see Table S4 with the data taken from References).

[3] = Cyclic voltammetry of the iron complexes; format: physicochemical; conditions: for E1/2 vs. NHE: iron(III/II)-ligand (1:3), pH 7.40
OATP2B1 = target: T1, OATP2B1 (Homo sapiens, UniProt O94956); assay: OATP uptake assay, OATP2B1; format: cell-based; conditions: human, 20 μM
T1 construct: expressed in transfected cells; host or cells: A431 epidermoid carcinoma cells
T1 sequence (O94956 1-709): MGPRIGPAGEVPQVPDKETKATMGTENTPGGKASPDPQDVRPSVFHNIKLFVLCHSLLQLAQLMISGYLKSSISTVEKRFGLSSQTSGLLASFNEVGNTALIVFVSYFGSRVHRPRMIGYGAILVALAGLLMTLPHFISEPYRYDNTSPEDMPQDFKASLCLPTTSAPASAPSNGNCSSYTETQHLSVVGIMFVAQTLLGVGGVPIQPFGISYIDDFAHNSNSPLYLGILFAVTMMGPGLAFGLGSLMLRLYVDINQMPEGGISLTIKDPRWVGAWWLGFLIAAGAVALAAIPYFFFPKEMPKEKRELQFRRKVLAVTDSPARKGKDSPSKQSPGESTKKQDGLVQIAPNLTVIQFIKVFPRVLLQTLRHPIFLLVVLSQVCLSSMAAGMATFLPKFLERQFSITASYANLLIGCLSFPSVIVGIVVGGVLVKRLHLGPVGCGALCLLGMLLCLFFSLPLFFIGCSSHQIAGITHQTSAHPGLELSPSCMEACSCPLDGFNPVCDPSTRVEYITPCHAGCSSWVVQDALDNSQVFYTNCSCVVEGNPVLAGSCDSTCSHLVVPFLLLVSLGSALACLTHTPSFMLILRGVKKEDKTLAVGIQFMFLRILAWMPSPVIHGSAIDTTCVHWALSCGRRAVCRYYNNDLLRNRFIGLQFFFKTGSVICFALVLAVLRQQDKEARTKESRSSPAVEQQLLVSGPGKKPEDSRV
Protocol: Cell lines: A431 cells overexpressing OATP1B1 or OATP2B1, and their mock transfected controls were generated and characterized previously. The cell lines were cultured in DMEM (Gibco, Thermofisher Scientific, Waltham, MA, USA), supplemented with 10% fetal bovine serum, 2 mM L-glutamine, 100 μg/mL streptomycin, and 100 units/mL penicillin at 37 °C and 5% CO2.
OATP uptake assay: Prior to the experiment, A431 cells (8 × 10^4/well) were seeded on 96-well plates in 200 μL cell culture medium. After 16–24 h, the cells were washed with 200 μL PBS, three times and pre-incubated with 20–200 μM HQNO2-L-Pro, or buffer without HQNO2-L-Pro for 5 min at 37 °C in 50 μL HBSS (Hank’s Balanced Salt Solution, pH 7.4; OATP1B1) or uptake buffer (pH 5.5; OATP2B1 [63]). The reaction was started by the addition of disulfopyrene (6,8-dihydroxy-1,3-pyrenedisulfonic acid disodium salt, Sigma, Darmstadt, Germany) at a final concentration of 10 μM (OATP1B1) or pyranine (8-hydroxypyrene-1,3-pyrenetrisulfonic acid trisodium salt, Sigma, Darmstadt, Germany) at a final concentration of 20 μM (OATP2B1), and the cells were further incubated at 37 °C for 10 min (OATP1B1) or 15 min (OATP2B1). The reaction was stopped by removing the supernatant after which the cells were washed three times with ice-cold PBS. Fluorescence (in 200 μL PBS) was determined using an Enspire plate reader (PerkinElmer, Waltham, MA, USA) with excitation/emission wavelengths of 460/510 nm. OATP-dependent transport was calculated by subtracting fluorescence measured in mock transfected cells. Transport activity was calculated based on the fluorescence signal in the absence (100%) of HQNO2-L-Pro. Experiments were repeated in at least three biological replicates.

## O=C(O)[C@@H]1CCCN1Cc1cc([N+](=O)[O-])c2cccnc2c1O [HQNO2-L-Pro, (2S)-1-((8-hydroxy-5-nitroquinolin-7-yl)methyl)pyrrolidin-1-ium-2-carboxylate]
[1]
  logβ [M(HL)2]: 38.76 ± 0.03
  logβ [M(HL)3]: 55.66 ± 0.03
  logβ [M(HL)]: 19.75 ± 0.03
[2]
  logβ [M(HL)2]: 32.74 ± 0.03
  logβ [M(HL)3]: 47.60 ± 0.06
  logβ [M(HL)]: 16.52 ± 0.03
  logβ [M(L)]: 8.39 ± 0.03
[3]; scan rate 0.005 V/s
  E1/2 vs. NHE: +0.207 V
[3]; scan rate 0.010 V/s
  E1/2 vs. NHE: +0.216 V
[3]; scan rate 0.015 V/s
  E1/2 vs. NHE: +0.218 V
[3]; scan rate 0.020 V/s
  E1/2 vs. NHE: +0.217 V
[3]; scan rate 0.025 V/s
  E1/2 vs. NHE: +0.214 V
[3]; pH 7.4, 1:3 metal-to-ligand ratio, ciron = 0.5 mM
  formal potential E'1/2 of the Fe(III)/Fe(II) redox pair of the iron complexes: +215 ± 5 mV vs. NHE
OATP2B1; A431 cells overexpressing OATP2B1, pH 5.5, probe pyranine, 10 μM, absence of compound = 100%, n = 3, ± SD, read-out: transport activity % OATP2B1
  activity at 15 min, 10 µM: 98.2 ± 5.5%
OATP2B1; A431 cells overexpressing OATP2B1, pH 5.5, probe pyranine, 100 μM, absence of compound = 100%, n = 3, ± SD, read-out: transport activity % OATP2B1
  activity at 15 min, 100 µM: 83.3 ± 9.7%
OATP2B1; probe pyranine, at 100 μM, A431 cells overexpressing OATP2B1, pH 5.5, read-out: inhibition of OATP2B1 function
  inhibition at 15 min, 100 µM: < 20%
